In patent US20240165196A1, “Beta-Lactamase Inhibitors” (VIB VZW, priority 2021, published 2024):

Legend:
[1] = test system: TEM beta-lactamase in E. coli UZ_TEM104; experiment: western blot of inclusion body (IB) fraction for TEM; format: cell-based; details: 12 μM peptide in PBS, 120 min
Procedure: (§1) FIGS. 3A-3P. […] Three replicates are shown for each condition. […] A single representative image is shown. […] Three replicates are shown for each condition. (FIG. 3E) [Left] […] [Middle] […] [Right] […] A single representative image is shown. […] A single representative image is shown. […] A single representative image is shown. […] A single representative blot is shown. […] 106 cells were analysed for the plot.
(§2) Moreover, we confirmed the presence of the protein in the correct band using mass spectrometry proteomics. We repeated this with a strain expressing SHV-154, blotting with a polyclonal rabbit antibody raised against the recombinant SHV enzyme described above (FIG. 3K).
(§3) The overnight culture of bacteria was centrifuged for 30 min at 4,000×g and cells were washed with physiological water (NaCl 0.9%). Bacterial cells were treated by peptide at the appropriate concentration for at least 2 h at 37 C. The bacterial pellets were washed with 10 mL buffer A (50 mM HEPES, pH 7.5, 300 mM NaCl, 5 mM β-mercaptoethanol, 1.0 mM EDTA) and centrifuged at 4° C. for 30 min at 4,000×g. The supernatant was discarded and 20 mL of buffer B (buffer A plus 1 tablet of the protease and phosphatase Inhibitor Cocktail (ab201119, Abcam, UK) was added to the bacterial pellet. In order to break the cells, a High-Pressure Homogenizer (Glen Creston Ltd) with the pressure set to 20,000-25,000 psi was used on ice, and in addition, the suspensions were sonicated (Branson Digital sonifier 50/60 Hz) on ice with alternating 2 min cycle (15 pulses at 50% power with 30 s pauses on ice, until completing 2 min total sonication time). The lysed cells were centrifuged at 4° C. for 30 min at 11,000×g. The precipitated fraction was afterward re-suspended with 10 mL buffer D (buffer A plus 0.8% (V/V) Triton X-100, 0.1% sodium deoxycholate) and the suspension was sonicated to ensure the pellet is completely dissolved. This step was repeated three times. Centrifugation was performed at 4° C. for 30 min at 11,000×g. Finally, to solubilize IBs, the pellet was suspended in 500 ul of buffer F (50 mM HEPES, pH 7.5, 8.0 M urea) of precipitated fraction.

[2] = test system: SHV beta-lactamase in strain expressing SHV-154; experiment: western blot of inclusion body (IB) fraction for SHV; format: cell-based, E. coli; details: 12 μM peptide in PBS, 120 min
Procedure: as §1, §2, §3

NCI-H441 = format: cell-based, human
E. coli SHV-11 = experiment: checkerboard assay (FICI), peptide versus penicillin G; format: cell-based; details: strain with SHV-11; FICI below 0.5 = synergy
Description: (§4) FIGS. 2A-2M. (FIG. 2A) TEM mutations and their effects on stability (total energy) as predicted by FoldX. […] Dashed line indicates a total energy difference of 0.5 kcal/mol, the FoldX cut-off above which mutations are considered to be destabilizing. (FIG. 2B) Barplot mapping mutations in (FIG. 2A) to the TEM sequence and indicating occurrence. […] The bar heights correspond to the number of times a mutation occurs across different TEM variants (right-hand y-axis). The color coding is identical to that in (FIG. 2A). Red line indicates the TANGO scores (indicated on the left-hand y-axis), with peaks corresponding to APRs. (FIG. 2C) Mapping of mutations in (FIG. 2A) and (FIG. 2B) to the TEM structure (pdb 1xpb). Protein surface is shown in gray, color coding of mutations is identical to (FIG. 2A) and (FIG. 2B). (FIGS. 2D, 2E, and 2F) Temperature-dependent evolution of the Right-Angle Light Scattering (RALS) intensity during a temperature ramp, similar as in FIG. 1F for key mutants of TEM1, namely TEM-10 (FIG. 2D), TEM-30 (FIG. 2E) and TEM-155 (FIG. 2F). Experiments were shown in triplicate, single repeat is shown. (FIG. 2G) Schematic representation of the structure of the peptides. APR—Aggregation Prone Region, R—Arginine. (FIG. 2H) Ribbon representation of the superposition of the crystal structures of TEM (green, pdb id 1bt5) and SHV (blue, pdb id 1shv). The catalytic site of the beta-lactamase activity is indicated and location of APR3 is shown in red. (FIG. 2I) TANGO aggregation score and alignment of APR3 in TEM and SHV. (FIG. 2J) Fractional Inhibitory Concentration Index determination of 5 peptides versus penicillin on E. coli TEM-104. […] FICI values below 0.5 indicate synergy. Values between 0.5 and 1.0 indicate additivity and values greater than 1 indicate indifference between the combined substances. (FIG. 2K) Same as J for E. coli SHV-11. (FIG. 2L) Same as J for a kanamycin resistant E. coli strain. (FIG. 2M) FICI values for the TEM3.2 peptide on a range of E. coli strains.
(§5) Moreover, the core sequence of peptide TEM3.0 also occurs in the structurally related SHV β-lactamase ([…]). Although the C-terminal extension residues H and N have been replaced with physicochemically similar R and Q, respectively (FIG. 2H). […] To quantify the synergy between these four peptides and penicillin G, we performed a so-called checkerboard assay, which allows to compare the activity of two test compounds co-incubated (here peptide and a beta-lactam antibiotic), to their individual activities in isolation. The result from the assay is quantified as the Fractional Inhibitory Concentration Index (FICI), and it is generally accepted that values below 0.5 indicate synergistic effects between the compounds. As a control, we generated a peptide using the same design, but based on a previously identified APR from the β-galactosidase enzyme (BGAL)^16 from E. coli (APR=SVIIWSL, peptide sequence=[…]) that has a MIC value>100 μg/mL on E. coli strain UZ_TEM104. We evaluated the synergy of the peptides with penicillin G in clinical E. coli isolates carrying the TEM ([…]) or SHV enzymes ([…]). […] As a further control, we also performed a checkerboard assay with an E. coli strain that was resistant to the aminoglycoside kanamycin and observed no synergy between this unrelated antibiotic and our peptides (FIG. 2L), in line with the notion that we are inhibiting a beta-lactamase but not the aminoglycoside degrading enzyme. […] The list of strains included some that harbored only TEM or SHV, but others contained additional Ambler Class A (CTX-M or […]) or Class B (VIM and NDM) beta-lactamases. […] In contrast, the presence of the NDM-type […], that does have a high affinity for Ampicillin and that is completely distinct in sequence and structure from TEM and SHV, seemed to completely prevent the effect of the peptide on the beta-lactam sensitivity of the strains in which it occurred (see also further). […]

E. coli TEM-104 = experiment: as above; format: cell-based; details: strain with TEM; FICI below 0.5 = synergy
Description: as §4, §5

Ac-RLTAFLHNRRPRLTAFLRQRR-NH2 [TEM3.2]
enrichment of the TEM protein in inclusion bodies (western blot) [1]: clear enrichment of the TEM protein in IBs | accumulation of the SHV enzyme in inclusion bodies (western blot) [2]: accumulates in IBs | cytotoxicity (Cell Titer Blue) (NCI-H441): not cytotoxic | synergy with penicillin G (FICI) (E. coli SHV-11): synergy | synergy with penicillin G (FICI) (E. coli TEM-104): synergy

Ac-RLTAFLHNRRPRLTAFLHNRR-NH2 [TEM3.0]
enrichment of the TEM protein in inclusion bodies (western blot) [1]: clear enrichment of the TEM protein in IBs | accumulation of the SHV enzyme in inclusion bodies (western blot) [2]: not | synergy with penicillin G (FICI) (E. coli SHV-11): not in a strain containing the SHV-11 enzyme | synergy with penicillin G (FICI) (E. coli TEM-104): clear synergy
